# From patent US20210269434A1, “TRICYCLIC COMPOUNDS AS INHIBITORS OF KRAS” (Incyte Corporation, priority 2020, published 2021)
# Legend:
# KRAS G12C = KRAS G12C (Homo sapiens, UniProt P01116, G12C); experiment: GDP-GTP exchange assay (KRAS_G12C exchange); type: biochemical; details: bodipy-GDP loaded KRAS G12C 2.5 nM, SOS1 150 nM, GppNHp; 2 hours pre-incubation, 2 hours reaction; read-out: G12C_exchange
# Method in brief: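 Fluorescence exchange of bodipy-GDP for GppNHp, SOS1-driven, read at 485/520 nm; IC50 from four-parameter variable-slope fit. Both mutants used 2.5 nM final labelled protein and a 2 h compound pre-incubation. G12C reaction had 500 uM GppNHp and 150 nM SOS1 for 2 h; G12D ran 4 h.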
# [1] = tested on: MIA PaCa-2 (KRAS G12C) cells; experiment: Cellular pERK HTRF assay (KRAS_G12C pERK); type: cell-based, human; details: Homo sapiens, MIA PaCa-2, 4 hours incubation, read-out: G12C_pERK
# Method in brief: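 Phospho-ERK1/2 HTRF readout (665 and 620 nm) in lysed MIA PaCa-2 cells, antibodies incubated overnight at room temperature. Cells seeded the day before and treated with G12C compounds for 4 h at 37 °C; IC50 fitted to percent inhibition against log inhibitor concentration.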
# Chain of KRAS G12C (P01116 1-188 isoform P01116-2 G12C): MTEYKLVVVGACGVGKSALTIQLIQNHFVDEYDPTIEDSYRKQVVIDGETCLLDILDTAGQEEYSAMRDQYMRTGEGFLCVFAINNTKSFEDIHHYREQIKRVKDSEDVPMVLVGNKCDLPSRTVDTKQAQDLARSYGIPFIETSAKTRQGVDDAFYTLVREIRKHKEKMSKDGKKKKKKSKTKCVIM
IC50 (KRAS G12C),IC50 [1],SMILES
≤ 100 nM,≤ 100 nM,"C=CC(=O)N1CC[C@H](n2nnc3c(OC[C@@H]4CCCN4C)nc4c(F)c(-c5cccc(C)c5Cl)c(C)cc4c32)C[C@H]1CC#N [Example 251, 2-((2S,4S)-1-acryloyl-4-(7-(2-chloro-3-methylphenyl)-6-fluoro-8-methyl-4-(((S)-1-methylpyrrolidin-2-yl)methoxy)-1H-[1,2,3]triazolo[4,5-c]quinolin-1-yl)piperidin-2-yl)acetonitrile]"
≤ 100 nM,≤ 100 nM,"C=CC(=O)N1CC[C@H](n2cnc3c(N4CC(N(C)C)C4)nc4c(F)c(-c5cccc(C)c5Cl)c(Cl)cc4c32)C[C@H]1CC#N [Example 19, 2-((2S,4S)-1-acryloyl-4-(8-chloro-7-(2-chloro-3-methylphenyl)-4-(3-(dimethylamino)azetidin-1-yl)-6-fluoro-1H-imidazo[4,5-c]quinolin-1-yl)piperidin-2-yl)acetonitrile]"
≤ 100 nM,≤ 100 nM,"CC#CC(=O)N1CCC(n2cnc3c(N4CC(C)(N(C)C)C4)nc4c(F)c(-c5cccc6cccc(Cl)c56)c(C)cc4c32)C[C@H]1CC#N (stereo partly drawn) [Example 222, 2-((2S)-1-(but-2-ynoyl)-4-(7-(8-chloronaphthalen-1-yl)-4-(3-(dimethylamino)-3-methylazetidin-1-yl)-6-fluoro-8-methyl-1H-imidazo[4,5-c]quinolin-1-yl)piperidin-2-yl)acetonitrile]"
≤ 100 nM,≤ 100 nM,"C=CC(=O)N1CC[C@H](n2nnc3c(N4CC(N(C)C)C4)nc4c(F)c(-c5c(C)c(Cl)cc6c5cnn6C)c(Cl)cc4c32)C[C@H]1CC#N (single isomer, unassigned) [Example 150a]"
≤ 100 nM,≤ 100 nM,"COC/C=C/C(=O)N1CC[C@H](n2nnc3c(N4CC(C)(N(C)C)C4)nc4c(F)c(-c5c(C)c(F)cc6[nH]ncc56)c(C)cc4c32)C[C@H]1CC#N [Example 203a, 2-((2S,4S)-4-(4-(3-(dimethylamino)-3-methylazetidin-1-yl)-6-fluoro-7-(6-fluoro-5-methyl-1H-indazol-4-yl)-8-methyl-1H-[1,2,3]triazolo[4,5-c]quinolin-1-yl)-1-((E)-4-methoxybut-2-enoyl)piperidin-2-yl)acetonitrile]"
≤ 100 nM,≤ 100 nM,"C=CC(=O)N1CCC(n2nnc3c(OC[C@@H]4CCCN4C)nc4c(F)c(-c5cccc(C)c5)c(Cl)cc4c32)C[C@H]1CC#N (stereo partly drawn) [Example 210, 2-((2S)-1-acryloyl-4-(8-chloro-6-fluoro-4-(((S)-1-methylpyrrolidin-2-yl)methoxy)-7-(m-tolyl)-1H-[1,2,3]triazolo[4,5-c]quinolin-1-yl)piperidin-2-yl)acetonitrile]"
≤ 100 nM,≤ 100 nM,"CC#CC(=O)N1CC[C@H](n2nnc3c(N4CC(N(C)C)C4)nc4c(F)c(-c5c(C)c(Cl)cc6[nH]ncc56)c(Cl)cc4c32)C[C@H]1CC#N (single isomer, unassigned) [Example 178a]"
≤ 100 nM,100 to 1000 nM,"C=CC(=O)N1CCC(n2cnc3c(OC[C@@H]4CCCN4C)nc4c(F)c(-c5c(C)ccc6[nH]ncc56)c(Cl)cc4c32)CC1 (single isomer, unassigned) [Example 4a]"
≤ 100 nM,≤ 100 nM,"C=CC(=O)N1CC[C@H](n2nnc3c(N4CC(N(C)C)C4)nc4c(Cl)c(-c5cccc(Cl)c5C)c(Cl)cc4c32)C[C@H]1CC#N [Example 273, 2-((2S,4S)-1-acryloyl-4-(6,8-dichloro-7-(3-chloro-2-methylphenyl)-4-(3-(dimethylamino)azetidin-1-yl)-1H-[1,2,3]triazolo[4,5-c]quinolin-1-yl)piperidin-2-yl)acetonitrile]"
100 to 1000 nM,1000 to 5000 nM,"C=CC(=O)N1CCC(n2cnc3cnc4c(F)c(-c5c(O)cccc5F)c(Cl)cc4c32)CC1 [Example 13, 1-(4-(8-Chloro-6-fluoro-7-(2-fluoro-6-hydroxyphenyl)-1H-imidazo[4,5-c]-quinolin-1-yl)piperidin-1-yl)prop-2-en-1-one]"
≤ 100 nM,≤ 100 nM,"C=CC(=O)N1CC[C@H](n2nnc3c(N4CC(N(C)C)C4)nc4cc(-c5cccc(Cl)c5C)c(C)cc4c32)C[C@H]1CC#N [Example 172, 2-((2S,4S)-1-acryloyl-4-(7-(3-chloro-2-methylphenyl)-4-(3-(dimethylamino)azetidin-1-yl)-8-methyl-1H-[1,2,3]triazolo[4,5-c]quinolin-1-yl)piperidin-2-yl)acetonitrile]"
≤ 100 nM,≤ 100 nM,"C=CC(=O)N1CC[C@H](n2cnc3c(N4CC(N(C)C)C4)nc4c(F)c(-c5cncc6ccccc56)c(Cl)cc4c32)C[C@H]1CC#N (single isomer, unassigned) [Example 73a]"
≤ 100 nM,100 to 1000 nM,"C=CC(=O)N1CCC(n2cnc3c(OC[C@@H]4CCCN4C)nc4c(F)c(-c5cc(O)cc6ccccc56)c(Cl)cc4c32)CC1 (single isomer, unassigned) [Example 1a]"
≤ 100 nM,≤ 100 nM,"C=CC(=O)N1CCC(n2cnc3c(OC[C@@H]4CCCN4C)nc4c(F)c(-c5cccc6c5CCC6)c(Cl)cc4c32)CC1CC#N (mixture of isomers) [Example 44, 2-(1-acryloyl-4-(8-chloro-7-(2,3-dihydro-1H-inden-4-yl)-6-fluoro-4-(((S)-1-methylpyrrolidin-2-yl)methoxy)-1H-imidazo[4,5-c]quinolin-1-yl)piperidin-2-yl)acetonitrile]"
≤ 100 nM,≤ 100 nM,"CC#CC(=O)N1CC[C@H](n2nnc3c(OC[C@@H]4CCCN4C)nc4c(F)c(-c5cccc(Cl)c5OC)c(CCC#N)cc4c32)C[C@H]1CC#N [Example 204, 3-(1-((2S,4S)-1-(but-2-ynoyl)-2-(cyanomethyl)piperidin-4-yl)-7-(3-chloro-2-methoxyphenyl)-6-fluoro-4-(((S)-1-methylpyrrolidin-2-yl)methoxy)-1H-[1,2,3]triazolo[4,5-c]quinolin-8-yl)propanenitrile]"
≤ 100 nM,≤ 100 nM,"C=CC(=O)N1CCC(n2cnc3c(N4CC(N(C)CC)C4)nc4c(F)c(-c5cccc6cccc(Cl)c56)c(Cl)cc4c32)C[C@H]1CC#N (single isomer, unassigned) [Example 214b]"
≤ 100 nM,≤ 100 nM,"C=CC(=O)N1CC[C@H](n2nnc3c(OC[C@@H]4CCCN4C)nc4c(Cl)c(-c5cc(F)cc6cccnc56)c(Cl)cc4c32)C[C@H]1CC#N (single isomer, unassigned) [Example 289a]"
≤ 100 nM,≤ 100 nM,"Cc1nccn1-c1nc2c(F)c(-c3ccc(F)cc3)c(Cl)cc2c2c1ncn2[C@H]1CCN(C(=O)/C=C/CN(C)C)[C@H](CC#N)C1 [Example 124, 2-((2S,4S)-4-(8-chloro-6-fluoro-7-(4-fluorophenyl)-4-(2-methyl-1H-imidazol-1-yl)-1H-imidazo[4,5-c]quinolin-1-yl)-1-((E)-4-(dimethylamino)-but-2-enoyl)piperidin-2-yl)acetonitrile]"
≤ 100 nM,≤ 100 nM,"CC#CC(=O)N1CC[C@H](n2nnc3c(N4CCN(C)CC4=O)nc4c(F)c(-c5cccc(Cl)c5C)c(Cl)cc4c32)C[C@H]1CC#N [Example 92, 2-((2S,4S)-1-(but-2-ynoyl)-4-(8-chloro-7-(3-chloro-2-methylphenyl)-6-fluoro-4-(4-methyl-2-oxopiperazin-1-yl)-1H-[1,2,3]triazolo[4,5-c]quinolin-1-yl)piperidin-2-yl)acetonitrile]"
≤ 100 nM,≤ 100 nM,"Cc1cccc(-c2c(C)cc3c(nc(N4CC(C)(N(C)C)C4)c4nnn([C@H]5CCN(C(=O)/C=C/CF)[C@H](CC#N)C5)c43)c2F)c1Cl [Example 256, 2-((2S,4S)-4-(7-(2-chloro-3-methylphenyl)-4-(3-(dimethylamino)-3-methylazetidin-1-yl)-6-fluoro-8-methyl-1H-[1,2,3]triazolo[4,5-c]quinolin-1-yl)-1-((E)-4-fluorobut-2-enoyl)piperidin-2-yl)acetonitrile]"
≤ 100 nM,100 to 1000 nM,"C=CC(=O)N1CCC(n2c(=O)[nH]c3c(OC[C@@H]4CCCN4C)nc4c(F)c(-c5cc(O)cc6ccccc56)c(Cl)cc4c32)CC1 [Example 10, 1-(1-Acryloylpiperidin-4-yl)-8-chloro-6-fluoro-7-(3-hydroxynaphthalen-1-yl)-4-(((S)-1-methylpyrrolidin-2-yl)methoxy)-1,3-dihydro-2H-imidazo[4,5-c]quinolin-2-one]"
≤ 100 nM,≤ 100 nM,"C=CC(=O)N1CC[C@H](n2cnc3c(N4CC(N(C)C)C4)nc4c(F)c(-c5cccc6ccccc56)c(Cl)cc4c32)C[C@H]1CC#N [Example 46, 2-((2S,4S)-1-acryloyl-4-(8-chloro-4-(3-(dimethylamino)azetidin-1-yl)-6-fluoro-7-(naphthalen-1-yl)-1H-imidazo[4,5-c]quinolin-1-yl)piperidin-2-yl)acetonitrile]"
≤ 100 nM,≤ 100 nM,"CC#CC(=O)N1CC[C@H](n2nnc3c(N4CC(N(C)C)C4)nc4c(F)c(-c5cccc(C)c5C)c(C)cc4c32)C[C@H]1CC#N [Example 207, 2-((2S,4S)-1-(but-2-ynoyl)-4-(4-(3-(dimethylamino)azetidin-1-yl)-7-(2,3-dimethylphenyl)-6-fluoro-8-methyl-1H-[1,2,3]triazolo[4,5-c]quinolin-1-yl)piperidin-2-yl)acetonitrile]"
≤ 100 nM,≤ 100 nM,"C=CC(=O)N1CC[C@H](n2nnc3c(N4CC(N(C)C)C4)nc4c(Cl)c(-c5cccc6cccnc56)c(Cl)cc4c32)C[C@H]1CC#N (single isomer, unassigned) [Example 283a]"
